Reference: ChEMBL document CHEMBL1147763, “Synthesis and biological activities of nucleoside-estradiol conjugates” (Bioorg Med Chem Lett, 2006)

Key:
MCF7 = experiment: Cytotoxicity against human breast cancer MCF7 cell line expressing ER; type: functional, cell-based
MDA-MB-231 = experiment: Cytotoxicity against human breast cancer MDA-MB-231 cell line lacking ER; type: functional, cell-based
[1] = Cell survival against human breast cancer MCF7 cell line after 72h at 10 uM; type: ADME, cell-based; settings: MCF7 breast cancer cells, read-out: Activity
[2] = Cell survival against human breast cancer MDA-MB-231 cell line after 72h at 10 uM; type: ADME, cell-based; settings: MDA-MB-231 breast cancer cells, read-out: Activity

Row | Structure (SMILES) | Activity (MCF7) | Activity (MDA-MB-231) | viability at 72 h, 10 µM [1] | viability at 72 h, 10 µM [2]
1 | C[C@]12CC[C@@H]3c4ccc(O)cc4CC[C@H]3[C@@H]1CC[C@@]2(O)C#Cc1cnc(O)nc1O | Not toxic | Not toxic | – | –
2 | CC/C(=C(\c1ccccc1)c1ccc(OCCN(C)C)cc1)c1ccccc1 [TAMOXIFEN] | – | – | 72% | –
3 | C[C@]12CC[C@@H]3c4ccc(O)cc4CC[C@H]3[C@@H]1CC[C@@]2(O)C#CCCCCC#Cc1cn([C@@H]2O[C@H](CO)[C@@H](O)[C@H]2O)c(=O)[nH]c1=O | Not toxic | Not toxic | – | –
4 | C[C@]12CC[C@@H]3c4ccc(O)cc4CC[C@H]3[C@@H]1CC[C@@]2(O)C#Cc1nc2c(N)ncnc2n1[C@H]1O[C@@H](CO)[C@H](O)[C@@H]1O | Not toxic | Not toxic | – | –
5 | C[C@]12CC[C@@H]3c4ccc(O)cc4CC[C@H]3[C@@H]1CC[C@@]2(O)C#Cc1cn([C@H]2C[C@H](O)[C@@H](CO)O2)c(=O)[nH]c1=O | Not toxic | Not toxic | – | –
6 | C[C@]12CC[C@@H]3c4ccc(O)cc4CC[C@H]3[C@@H]1CC[C@@H]2O | Not toxic | Not toxic | – | –
7 | Cn1cc(C#C[C@]2(O)CC[C@H]3[C@@H]4CCc5cc(O)ccc5[C@H]4CC[C@@]32C)c(=O)n(C)c1=O | Not toxic | Not toxic | – | –
8 | C[C@]12CC[C@@H]3c4ccc(O)cc4CC[C@H]3[C@@H]1CC[C@@]2(O)C#CCCCCC#Cc1cnc(O)nc1O | Not toxic | Not toxic | – | –
9 | C[C@]12CC[C@@H]3c4ccc(O)cc4CC[C@H]3[C@@H]1CC[C@@]2(O)C#CCCCCC#Cc1cn([C@H]2C[C@H](O)[C@@H](CO)O2)c(=O)[nH]c1=O | Not toxic | Not toxic | – | –
10 | Cn1cc(C#CCCCCC#C[C@]2(O)CC[C@H]3[C@@H]4CCc5cc(O)ccc5[C@H]4CC[C@@]32C)c(=O)n(C)c1=O | Not toxic | Not toxic | – | –
11 | O=c1[nH]cc(F)c(=O)[nH]1 [FLUOROURACIL] | – | – | 40% | 67%
